Measured values: patent US12187709B2 (Genentech, Inc., priority 2021, dated 2025)

Columns and labels:
Cbl-b = Cbl-b (Homo sapiens (Human), UniProt Q13191); experiment: Cbl-b LCK Ub TR-FRET assay (Cbl-b Lck HTRF); type: biochemical; settings: for IC50: Cbl-b LCK Ub TR-FRET; for fold-selectivity (Cbl-b over C-cbl) / (fold-selectivity) Cbl-b and C-Cbl Selectivity: ratio C-cbl Lck HTRF IC50 / Cbl-b Lck HTRF IC50
Method in brief: (§1)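 Detection reagents added, brief spin, 20 min RT. IC50 fit normalized to no-LCK (low) and DMSO (high) controls.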

c-Cbl = c-Cbl (Homo sapiens (Human), UniProt P22681); experiment: C-Cbl LCK Ub TR-FRET assay (C-cbl Lck HTRF); type: biochemical
c-Cbl, sequence (P22681 47-435): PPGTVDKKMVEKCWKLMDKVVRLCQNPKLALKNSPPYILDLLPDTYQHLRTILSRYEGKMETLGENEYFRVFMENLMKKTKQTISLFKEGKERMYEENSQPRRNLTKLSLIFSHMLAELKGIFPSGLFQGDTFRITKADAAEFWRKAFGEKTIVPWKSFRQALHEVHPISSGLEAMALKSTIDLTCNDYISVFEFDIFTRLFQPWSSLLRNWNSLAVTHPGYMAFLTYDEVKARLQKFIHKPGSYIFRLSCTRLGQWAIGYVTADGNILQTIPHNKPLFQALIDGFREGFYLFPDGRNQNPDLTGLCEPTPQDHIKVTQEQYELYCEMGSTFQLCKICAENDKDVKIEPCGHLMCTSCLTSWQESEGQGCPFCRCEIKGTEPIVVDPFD
Method in brief: as §1

[1] = target: Human Cbl-b (residues 40-426) (Homo sapiens (Human), UniProt Q13191); experiment: Cbl-b SPR assay; type: binding; settings: for Fold of selectivity: C-cbl SPR Kd vs Cbl-b SPR Kd; for Kd: SPR, 20° C.
Human Cbl-b (residues 40-426), sequence (Q13191 40-426): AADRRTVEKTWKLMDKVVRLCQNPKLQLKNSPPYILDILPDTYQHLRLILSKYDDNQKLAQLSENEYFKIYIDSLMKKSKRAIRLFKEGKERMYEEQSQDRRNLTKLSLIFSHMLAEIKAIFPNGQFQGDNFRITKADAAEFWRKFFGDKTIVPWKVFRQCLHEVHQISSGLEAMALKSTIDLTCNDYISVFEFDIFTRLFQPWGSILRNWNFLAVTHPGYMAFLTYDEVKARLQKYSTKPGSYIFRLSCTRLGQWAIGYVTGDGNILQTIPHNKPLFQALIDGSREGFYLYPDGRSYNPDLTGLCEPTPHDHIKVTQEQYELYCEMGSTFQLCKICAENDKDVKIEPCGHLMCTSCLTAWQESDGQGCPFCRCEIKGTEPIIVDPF
Method in brief: (§2)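 Values derive from a 1:1 model fitted to multicycle kinetics on captured protein (1300-1500 RU), using six 2-fold concentrations, 60 s contact and dissociation of 120-1200 s. In the chaser format, kd comes from a single-exponential fit of % site occupancy over time.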

c-Cbl (residues 47-435) = c-Cbl (residues 47-435) (Homo sapiens (Human), UniProt P22681); experiment: c-Cbl SPR assay; type: binding; settings: 20° C.
c-Cbl (residues 47-435), sequence (P22681 47-435): as the sequence (P22681 47-435) above
Method in brief: as §2

Cbl-b, sequence (Q13191 40-426): as the sequence (Q13191 40-426) above

SMILES	IC50 (Cbl-b) [nM]	fold-selectivity (Cbl-b over C-cbl) (Cbl-b)	IC50 (c-Cbl) [nM]	Fold of selectivity [1] [×]	Kd [1] [nM]	Kd (c-Cbl (residues 47-435)) [nM]	IC50 (Cbl-b; Example 121) [nM]	(fold-selectivity) Cbl-b and C-Cbl Selectivity (Cbl-b) [x]
CO[C@]1(C)C[C@@](c2cccc(N3Cc4c(cc(CNC5(C)CCC5)cc4C(F)(F)F)C3=O)c2)(c2nncn2C)C1 [Compound 28, 2-(3-((1r,3r)-3-methoxy-3-methyl-1-(4-methyl-4H-1,2,4-triazol-3-yl)cyclobutyl)phenyl)-6-(((1-methylcyclobutyl)amino)methyl)-4-(trifluoromethyl)isoindolin-1-one]	13	(2.7x)	35	5.5	2.5	13		
CO[C@H]1C[C@](c2cccc(N3Cc4c(cc(CNC5CC(C)(C)C5)cc4C(F)(F)F)C3=O)c2)(c2nncn2C)C1 [Compound 488, 6-(((3,3-dimethylcyclobutyl)amino)methyl)-2-(3-((1r,3r)-3-methoxy-1-(4-methyl-4H-1,2,4-triazol-3-yl)cyclobutyl)phenyl)-4-(trifluoromethyl)isoindolin-1-one]			14	13	1	13	5.8	2.4
CCNc1cc(N2Cc3c(cc(CNC4(C)CCC4)cc3C(F)(F)F)C2=O)cc([C@]2(c3nncn3C)C[C@@H](C)C2)c1 [Compound 91, 2-(3-(ethylamino)-5-((1s,3s)-3-methyl-1-(4-methyl-4H-1,2,4-triazol-3-yl)cyclobutyl)phenyl)-6-(((1-methylcyclobutyl)amino)methyl)-4-(trifluoromethyl)-isoindolin-1-one]	10	0.8x	8	3.0	0.3	0.9		
Cn1cnnc1[C@H](c1cccc(N2Cc3c(Cl)cc(CNC4(C)CCC4)cc3C2=O)c1)[C@H]1C[C@@H](F)C1 (single isomer, unassigned) [Compound 319]	12	3.5x	41	8.0	6.4	53		
Cn1cnnc1[C@]1(c2cc(NC3CCC3)nc(N3Cc4c(cc(CNC5(C)CCC5)cc4C(F)(F)F)C3=O)c2)C[C@@H](C)C1 [Compound 68, 2-(6-(cyclobutylamino)-4-((1R,3R)-3-methyl-1-(4-methyl-4H-1,2,4-triazol-3-yl)cyclobutyl)pyridin-2-yl)-6-(((1-methylcyclobutyl)amino)methyl)-4-(trifluoromethyl)isoindolin-1-one]	8.5	(0.8x)	7.1	4.3	0.24	1		
CO[C@H]1C[C@@](c2cccc(N3Cc4c(cc([C@H](C)NC5(C)CCC5)cc4C(F)(F)F)C3=O)c2)(c2nncn2C)C1 (single isomer, unassigned) [Compound 176]	62	3.4x	220	6.8	41	280		
Cn1cnnc1[C@@H](c1cccc(N2Cc3c(cc(CNC4(C)CCC4)cc3C(F)(F)F)C2=O)c1)C1CC(F)C1 (single isomer, unassigned) [Compound 130]	5.5	1.0x	5.7	5.3	0.3	1.6		
Cn1cnnc1C(c1cccc(N2Cc3c(cc(CNC4(C)CCC4)cc3C(F)(F)F)C2=O)c1)[C@H]1C[C@H](CC#N)C1 (single isomer, unassigned) [Compound 363]	61	2.3x	140	3.6	78	280		
Cn1cnnc1[C@]1(c2cccc(N3Cc4c(cc(CNC5(C)CCC5)cc4C(F)(F)F)C3=O)c2)C[C@@H](C#N)C1 [Compound 24, (1r,3r)-3-(4-methyl-4H-1,2,4-triazol-3-yl)-3-(3-(6-(((1-methylcyclobutyl)amino)methyl)-1-oxo-4-(trifluoromethyl)isoindolin-2-yl)phenyl)cyclobutanecarbonitrile]	13	(1.8x)	23	8.4	1.7	15		
Cn1cnnc1[C@]1(c2cccc(N3Cc4c(cc(CNC5(C)CCC5)cc4C(F)(F)F)C3=O)c2)C[C@H]([S@@+](C)[O-])C1 (single isomer, unassigned) [Compound 161]	600	7.2x	4300	6.6	460	3000		
CO[C@H]1C[C@](c2cccc(N3Cc4c(cc(CNC5CC6(C5)CC6F)cc4C(F)(F)F)C3=O)c2)(c2nncn2C)C1 (stereo partly drawn) [Compound 504, 6-(((1-fluorospiro[2.3]hexan-5-yl)amino)methyl)-2-(3-((1r,3r)-3-methoxy-1-(4-methyl-4H-1,2,4-triazol-3-yl)cyclobutyl)phenyl)-4-(trifluoromethyl)isoindolin-1-one]			68	16	5.7	90	13	5.1
CO[C@H]1C[C@](c2cccc(N3Cc4c(cc([C@@H](C)NC5(C)CCC5)cc4C(F)(F)F)C3=O)c2)(c2nncn2C)C1 (single isomer, unassigned) [Compound 184]	7.6	1.1x	8.3	6.3	0.42	2.5		
Cn1cnnc1C(c1cccc(N2Cc3c(cc(CNC4(C)CCC4)cc3C(F)(F)F)C2=O)c1)[C@H]1C[C@H](CC#N)C1 (single isomer, unassigned) [Compound 364]	2.5	1.3x	3.3	4.4	0.55	2.4		
C[C@@H](NC1(C)CCC1)c1cc2c(c(C(F)F)c1)CN(c1cccc([C@H](c3nncn3C)C3COC3)c1)C2=O (single isomer, unassigned) [Compound 412]			59	16	5.2	82	14	4.2
CO[C@H]1C[C@H]([C@@H](c2cccc(N3Cc4c(cc(CN5CCN(C)C[C@@H]5C(C)C)cc4C(F)(F)F)C3=O)c2)c2nncn2C)C1 (single isomer, unassigned) [Compound 15]	1900	(1.6x)	4900	14	770	11000		
CO[C@H]1C[C@](c2cccc(N3Cc4c(cc(CNCCC5CCC5(F)F)cc4C(F)(F)F)C3=O)c2)(c2nncn2C)C1 (stereo partly drawn) [Compound 499, 6-(((2-(2,2-difluorocyclobutyl)ethyl)amino)methyl)-2-(3-((1r,3r)-3-methoxy-1-(4-methyl-4H-1,2,4-triazol-3-yl)cyclobutyl)phenyl)-4-(trifluoromethyl)isoindolin-1-one]			78	19	3.7	79	16	5.0
